pKd: −log10 of the molar value.
Legend:
[1] = tested on: C. albicans strain SC5314; assay: Agarose disk diffusion assay, control strain SC5314; type: cell-based, Candida albicans; details: for effect of Mdr1 inhibitor MCC1189 on azole susceptibility: SC5314, MCC1189 at 6 µM in the assay medium; for effect of Cdr1p inhibitor RC21v3 on azole susceptibility: SC5314, RC21v3 at 6 µM in the assay medium
Description: (§1) Agarose diffusion assays were carried out as described previously using the Darlington strain of C. albicans (Pfizer Ltd., Sandwich, UK) and the control C. albicans database strain SC5314, which is not resistant to azoles. The Cdr1p-specific inhibitor RC21v3 and the CaMdr1p-specific inhibitor MCC1189 (MicroCombiChem, Wiesbaden, Germany), included in the assay medium at 6 µM, were used to investigate the contribution of efflux pumps to azole resistance in the Darlington strain [49, 50, 51].

[2] = target: wild-type and Y140F/H mutants of ScLDM6×His; design: method as in earlier work; details: no significant differences, ref 5 (supplement; Sagatova et al. 2016); cited from earlier work
[3] = tested on: S. cerevisiae strain AD3Δ ScErg11 Y140H I471T expressing ScLDM6×His Y140H I471T; assay: Broth microdilution drug susceptibility assay (MIC80), strain AD3Δ ScErg11 Y140H I471T; type: cell-based, Saccharomyces cerevisiae; details: for MIC: Saccharomyces cerevisiae, strain Y140H + I471T, 48 h, 30 °C, pH 6.8, mean (± SEM), n = 3; for resistance conferred, relative expression taken into account: ScLDM6×His Y140H I471T (0.41 of wild-type) vs AD3Δ; for MIC80/Relative Amount of ScLDM6×His / fold-resistance based on the relative amount of recombinant enzyme compared with strain AD3Δ: strain Y140H+I471T, relative expression 0.41
Description: (§2) The native ScERG11 gene in yeast cells containing mutant ScERG11-6×His constructs in the PDR5 locus was disrupted by homologous recombination with a cassette encoding the His1 selection marker and sequences homologous with the regions bordering the endogenous ScERG11 ORF to create strains AD3Δ ScErg11 Y140H, AD3Δ ScErg11 I471T and AD3Δ ScErg11Y140H I471T [43]. Transformants were selected on SD-His agar plates incubated at 30 °C for 48–72 h. Genomic DNA was extracted, and DNA sequencing as above was used to confirm deletion of the native ERG11. Strain AD3Δ ScErg11 (denoted as AD3Δ), which overexpresses wild-type ScLDM6×His from the PDR5 locus and has the native ScERG11 gene disrupted, was used as a control strain [43].
(§3) Azole susceptibility was measured as the mean drug concentration required to inhibit 80% of yeast growth (MIC80) compared to a non-drug control, using a standard broth microdilution assay. Serial dilutions of short- (FLC and VCZ), medium- (VT-1161), and long-tailed (ITC and PCZ) azole drugs, and the control drugs micafungin (MCF) and amphotericin B (AMB), were prepared in a 96-well microtiter plate in complete synthetic media lacking uracil, buffered to pH 6.8 [34]. Control and test cells were seeded at an optical density of 600 nm (OD600) of 0.005 (~1.5 × 10^4 colony forming units). After incubation for 48 h at 30 °C with constant agitation (200 rpm), the OD600 nm of each well was measured using a Synergy 2 multi-mode plate reader (BioTek Instruments, Winooski, VT, USA). The experiment was repeated three times (a total of nine measurements for the response of each strain to each drug). GraphPad Prism 5.0 software was used for statistical analysis, using a one-way analysis of variance with a Bonferroni post-hoc test. The statistical significance of comparisons was accepted when p < 0.05.

[4] = tested on: S. cerevisiae strain AD2Δ (native wild-type ScLDM); assay: Broth microdilution drug susceptibility assay (MIC80), host strain AD2Δ; type: cell-based; details: Saccharomyces cerevisiae; strain AD2Δ; 48 h, 30 °C, pH 6.8; mean (± SEM), n = 3; read-out: MIC80
Description: Yeast strains used in this study (Supplementary Table S1) were prepared using the AD2Δ strain of S. cerevisiae as a host, using an established protocol. AD2Δ is hypersensitive to xenobiotics due to the deletion of seven major ABC transporters, including those responsible for the efflux of azole drugs. It is also deleted of the PDR3 transcriptional regulator, but contains the gain-of-function Pdr1-3 transcriptional regulator mutation that leads to constitutive overexpression from the PDR5 locus.
as §3

[5] = tested on: S. cerevisiae strain AD3Δ ScErg11 (AD3Δ) overexpressing wild-type ScLDM6×His; assay: Broth microdilution drug susceptibility assay (MIC80), strain AD3Δ ScErg11; type: cell-based, Saccharomyces cerevisiae; details: strain AD3Δ; for MIC80: Saccharomyces cerevisiae, 48 h, 30 °C, pH 6.8, mean (± SEM), n = 3, read-out: MIC80; for MIC80/Relative Amount of ScLDM6×His: relative expression 1
Description: as §2, §3

[6] = tested on: C. albicans Darlington strain; assay: Agarose disk diffusion assay, Darlington strain; type: cell-based, Candida albicans; details: for effect of Mdr1 inhibitor MCC1189 on azole susceptibility: MCC1189 at 6 µM in the assay medium; for effect of Cdr1p inhibitor RC21v3 on azole susceptibility: RC21v3 at 6 µM in the assay medium; for agarose diffusion susceptibility: no efflux pump inhibitor
Description: as §1

[7] = tested on: S. cerevisiae strain AD3Δ ScErg11 I471T expressing ScLDM6×His I471T; assay: Broth microdilution drug susceptibility assay (MIC80), strain AD3Δ ScErg11 I471T; type: cell-based, Saccharomyces cerevisiae; details: for MIC80: Saccharomyces cerevisiae, 48 h, 30 °C, pH 6.8, mean (± SEM), n = 3; for MIC80 / MIC80/Relative Amount of ScLDM6×His / fold-resistance based on the relative amount of recombinant enzyme compared with strain AD3Δ: strain I471T; for increased susceptibility compared with AD3Δ: strain AD3Δ ScErg11 I471T, not corrected for expression; for MIC80/Relative Amount of ScLDM6×His / fold-resistance based on the relative amount of recombinant enzyme compared with strain AD3Δ: relative expression 0.51
Description: as §2, §3

[8] = tested on: S. cerevisiae strain AD3Δ ScErg11 Y140H expressing ScLDM6×His Y140H; assay: Broth microdilution drug susceptibility assay (MIC80), strain AD3Δ ScErg11 Y140H; type: cell-based, Saccharomyces cerevisiae; details: for MIC80: Saccharomyces cerevisiae, 48 h, 30 °C, pH 6.8, mean (± SEM), n = 3; for MIC80 / MIC80/Relative Amount of ScLDM6×His / fold-resistance based on the relative amount of recombinant enzyme compared with strain AD3Δ: strain Y140H; for MIC80/Relative Amount of ScLDM6×His / fold-resistance based on the relative amount of recombinant enzyme compared with strain AD3Δ: relative expression 0.74
Description: as §2, §3

[9] = tested on: Phakopspora pachyrhizi SDM Y131F I475T isolates; design: method as in PMID 23589453; details: isolates from soybean plants in Brazil; cited from earlier work

Row | SMILES | effect of Mdr1 inhibitor MCC1189 on azole susceptibility [1] | effect of Cdr1p inhibitor RC21v3 on azole susceptibility [1] | MIC [3] [µM] | resistance conferred, relative expression taken into account [3] [fold] | MIC80/Relative Amount of ScLDM6×His [3] [µM] | fold-resistance based on the relative amount of recombinant enzyme compared with strain AD3Δ [3] [×] | MIC80 [4] [µM] | MIC80 [5] [µM] | MIC80/Relative Amount of ScLDM6×His [5] [µM] | effect of Mdr1 inhibitor MCC1189 on azole susceptibility [6] | effect of Cdr1p inhibitor RC21v3 on azole susceptibility [6] | agarose diffusion susceptibility [6] | MIC80 [7] [µM] | increased susceptibility compared with AD3Δ [7] [fold] | MIC80/Relative Amount of ScLDM6×His [7] [µM] | fold-resistance based on the relative amount of recombinant enzyme compared with strain AD3Δ [7] [×] | MIC80 [8] [µM] | MIC80/Relative Amount of ScLDM6×His [8] [µM] | fold-resistance based on the relative amount of recombinant enzyme compared with strain AD3Δ [8] [×] | resistance conferred by the double mutation Y131F I475T [9] | other results
1 | CC[C@@H]([C@H](C)O)n1ncn(-c2ccc(N3CCN(c4ccc(OC[C@@H]5CO[C@@](Cn6cncn6)(c6ccc(F)cc6F)C5)cc4)CC3)cc2)c1=O [PCZ, Posaconazole] | no effect on susceptibility | increased susceptibility | 0.265 | 1.5 | 0.646 | 1.5 | 0.16 | 0.423 | 0.423 | no effect on susceptibility | increased susceptibility | resistant | 0.27 | 1.6 | 0.527 | 1.3 | 0.33 | 0.445 | 1.1 |  | pKd [2]: ~6.30; susceptibility compared with AD3Δ cells ([8]; cells overexpressing ScLDM6×His Y140H, not corrected for expression): slightly increased susceptibility
2 | O[C@@](Cn1cnnn1)(c1ccc(F)cc1F)C(F)(F)c1ccc(-c2ccc(OCC(F)(F)F)cc2)cn1 [VT-1161] | did not alter the susceptibility | did not alter the susceptibility | 0.0676 | 2.2 | 0.165 | 2.2 | 0.0288 | 0.0754 | 0.0754 | did not alter the susceptibility | did not alter the susceptibility | resistant | 0.0346 | 2.2 | 0.0679 | 0.90 | 0.116 | 0.157 | 2.1 |  | agarose diffusion susceptibility ([1]; SC5314, no efflux pump inhibitor): susceptible; resistance conferred, relative amount of recombinant ScLDM6×His taken into account ([8]; ScLDM6×His Y140H vs AD3Δ): 2.1 fold; resistance of cells containing the Y140H mutation in ScLDM6×His ([8]; discussion, significant but modest): 2 fold; MIC80 higher than strain AD3Δ ScErg11 ([8]; strain AD3Δ ScErg11 Y140H vs AD3Δ, not corrected for expression, p < 0.001): 1.5 fold
3 | CC(C1CC1)C(O)(Cn1cncn1)c1ccc(Cl)cc1 (centres unmarked) [cyproconazole] |  |  |  |  |  |  |  |  |  |  |  |  |  |  |  |  |  |  |  | ~ 100 fold | 
4 | CC1(C)CCC(Cc2ccc(Cl)cc2)C1(O)Cn1cncn1 (centres unmarked) [metconazole] |  |  |  |  |  |  |  |  |  |  |  |  |  |  |  |  |  |  |  | ~ 100 fold | 
5 | CC(C)(C)C(O)(CCc1ccc(Cl)cc1)Cn1cncn1 (centres unmarked) [tebuconazole] |  |  |  |  |  |  |  |  |  |  |  |  |  |  |  |  |  |  |  | ~ 100 fold | 

From paper PMC8621857, “Structural Insights into the Azole Resistance of the Candida albicans Darlington Strain Using Saccharomyces cerevisiae Lanosterol 14α-Demethylase as a Surrogate” (Journal of Fungi, 2021)
